US20140243332A1, “METHODS OF TREATING CANCERS CHARACTERIZED BY ABERRENT ROS1 ACTIVITY” (Oregon Health & Science University, priority 2013, published 2014)
Where “and” joins values, the source holds several entries; their conditions need not be identical. Identical values can stand only once. Like-named read-outs stand apart in the source and are kept apart here.

Tests used:
Ba/F3 parental cells = assay: Cell viability (MTS) assay, Ba/F3 parental; type: cell-based
Experimental: (§1) The parental Ba/F3 cell line was cultured in RPMI 1640 medium with 10% FBS, L-glutamine, penicillin/streptomycin and 15% WEHI-conditioned media. Ba/F3 cell lines were maintained at densities of 0.5×10^6 to 1.5×10^6 per ml of media. FIG-ROS and SLC-ROS Ba/F3 lines were created by infecting the parental Ba/F3 with retrovirus expressing either human FIG-ROS-S (indicated FIG-ROS herein) or SLC-ROS-S (indicated SLC-ROS herein). Stable transfectant lines were sorted for GFP expression on a FACS Aria® flow cytometer. Cells were counted daily using Guava ViaCount® reagent and Guava Personal Cell Analysis® flow cytometer. […] Early passage NIH3T3 cells were infected with retrovirus expressing either FIG-ROS or SLC-ROS and sorted for GFP expression as described above for Ba/F3 cells. HCC78 cells were cultured in RPMI 1640 medium with 10% FBS, L-glutamine, and penicillin/streptomycin. This media is referred to as RPMI-10% FBS herein.
(§2) […]. The Ba/F3 parental line was also tested. (O'Dwyer M E and Druker B J, Lancet Oncology 1, 207-211 (2000); Walters D K et al, Cancer Cell 10, 65-75 (2006); and Heukamp L C et al, Science Translational Medicine 4, 141ra191 (2012); […].

Ba/F3 ALK F1174L cells = Ba/F3 ALK F1174L cells (Homo sapiens, UniProt Q9UM73, F1174L, cells depend on it); assay: Cell viability (MTS) assay, Ba/F3 ALK F1174L; type: cell-based; settings: 72 hours, read-out: IC50 (the source's name)
Ba/F3 JAK3 A572V cells = Ba/F3 JAK3 A572V cells (Homo sapiens, UniProt P52333, A572V, cells depend on it); assay: Cell viability (MTS) assay, Ba/F3 JAK3 A572V; type: cell-based; settings: read-out: IC50 (insensitive/resistant up to stated concentration)
Sequence of Ba/F3 JAK3 A572V cells (P52333 whole entry A572V): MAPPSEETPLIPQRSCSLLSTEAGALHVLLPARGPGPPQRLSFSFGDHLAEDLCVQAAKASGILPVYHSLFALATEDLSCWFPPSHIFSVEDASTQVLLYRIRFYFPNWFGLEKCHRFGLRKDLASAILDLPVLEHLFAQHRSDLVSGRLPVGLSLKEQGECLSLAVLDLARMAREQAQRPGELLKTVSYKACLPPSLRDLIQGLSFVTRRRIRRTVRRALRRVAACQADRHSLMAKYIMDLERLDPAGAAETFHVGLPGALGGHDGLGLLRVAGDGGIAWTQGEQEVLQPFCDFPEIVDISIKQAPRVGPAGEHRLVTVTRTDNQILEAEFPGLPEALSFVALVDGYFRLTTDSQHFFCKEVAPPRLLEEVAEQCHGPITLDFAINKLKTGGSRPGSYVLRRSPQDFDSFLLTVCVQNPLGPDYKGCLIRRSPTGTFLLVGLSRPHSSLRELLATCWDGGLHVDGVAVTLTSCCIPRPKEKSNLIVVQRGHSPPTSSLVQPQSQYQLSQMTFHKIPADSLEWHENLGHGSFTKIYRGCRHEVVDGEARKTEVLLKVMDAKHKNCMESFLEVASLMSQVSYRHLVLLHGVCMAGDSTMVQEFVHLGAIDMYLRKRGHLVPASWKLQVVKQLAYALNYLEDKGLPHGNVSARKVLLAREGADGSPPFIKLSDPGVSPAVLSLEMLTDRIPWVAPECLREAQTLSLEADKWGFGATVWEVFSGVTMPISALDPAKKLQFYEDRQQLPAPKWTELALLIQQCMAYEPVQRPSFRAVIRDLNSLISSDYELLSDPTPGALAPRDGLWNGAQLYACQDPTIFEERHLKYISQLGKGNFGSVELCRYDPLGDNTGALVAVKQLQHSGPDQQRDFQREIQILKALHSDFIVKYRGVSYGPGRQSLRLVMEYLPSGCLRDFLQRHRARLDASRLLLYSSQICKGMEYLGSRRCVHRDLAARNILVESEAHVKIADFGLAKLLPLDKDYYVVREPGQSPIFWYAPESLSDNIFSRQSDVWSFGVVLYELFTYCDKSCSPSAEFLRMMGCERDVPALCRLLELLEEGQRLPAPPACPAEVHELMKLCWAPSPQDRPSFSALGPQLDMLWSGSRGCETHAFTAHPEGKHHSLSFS

Ba/F3 FIG-ROS cells [1] = target: T1, Ba/F3 FIG-ROS cells (Homo sapiens, UniProt P08922); assay: Cell viability (MTS) assay, Ba/F3 FIG-ROS; type: cell-based; settings: read-out: IC50 (50% growth inhibitory concentration); Ba/F3 FIG-ROS cells, 72 hours, MTS
T1 construct: fused on or other part: GFP is co-expressed from an IRES in pMIG and is not fused; Q9HD26 (Golgi-associated PDZ and coiled-coil motif-containing protein)
T1 sequence (P08922 whole entry, change not shown, the tested form may be a part): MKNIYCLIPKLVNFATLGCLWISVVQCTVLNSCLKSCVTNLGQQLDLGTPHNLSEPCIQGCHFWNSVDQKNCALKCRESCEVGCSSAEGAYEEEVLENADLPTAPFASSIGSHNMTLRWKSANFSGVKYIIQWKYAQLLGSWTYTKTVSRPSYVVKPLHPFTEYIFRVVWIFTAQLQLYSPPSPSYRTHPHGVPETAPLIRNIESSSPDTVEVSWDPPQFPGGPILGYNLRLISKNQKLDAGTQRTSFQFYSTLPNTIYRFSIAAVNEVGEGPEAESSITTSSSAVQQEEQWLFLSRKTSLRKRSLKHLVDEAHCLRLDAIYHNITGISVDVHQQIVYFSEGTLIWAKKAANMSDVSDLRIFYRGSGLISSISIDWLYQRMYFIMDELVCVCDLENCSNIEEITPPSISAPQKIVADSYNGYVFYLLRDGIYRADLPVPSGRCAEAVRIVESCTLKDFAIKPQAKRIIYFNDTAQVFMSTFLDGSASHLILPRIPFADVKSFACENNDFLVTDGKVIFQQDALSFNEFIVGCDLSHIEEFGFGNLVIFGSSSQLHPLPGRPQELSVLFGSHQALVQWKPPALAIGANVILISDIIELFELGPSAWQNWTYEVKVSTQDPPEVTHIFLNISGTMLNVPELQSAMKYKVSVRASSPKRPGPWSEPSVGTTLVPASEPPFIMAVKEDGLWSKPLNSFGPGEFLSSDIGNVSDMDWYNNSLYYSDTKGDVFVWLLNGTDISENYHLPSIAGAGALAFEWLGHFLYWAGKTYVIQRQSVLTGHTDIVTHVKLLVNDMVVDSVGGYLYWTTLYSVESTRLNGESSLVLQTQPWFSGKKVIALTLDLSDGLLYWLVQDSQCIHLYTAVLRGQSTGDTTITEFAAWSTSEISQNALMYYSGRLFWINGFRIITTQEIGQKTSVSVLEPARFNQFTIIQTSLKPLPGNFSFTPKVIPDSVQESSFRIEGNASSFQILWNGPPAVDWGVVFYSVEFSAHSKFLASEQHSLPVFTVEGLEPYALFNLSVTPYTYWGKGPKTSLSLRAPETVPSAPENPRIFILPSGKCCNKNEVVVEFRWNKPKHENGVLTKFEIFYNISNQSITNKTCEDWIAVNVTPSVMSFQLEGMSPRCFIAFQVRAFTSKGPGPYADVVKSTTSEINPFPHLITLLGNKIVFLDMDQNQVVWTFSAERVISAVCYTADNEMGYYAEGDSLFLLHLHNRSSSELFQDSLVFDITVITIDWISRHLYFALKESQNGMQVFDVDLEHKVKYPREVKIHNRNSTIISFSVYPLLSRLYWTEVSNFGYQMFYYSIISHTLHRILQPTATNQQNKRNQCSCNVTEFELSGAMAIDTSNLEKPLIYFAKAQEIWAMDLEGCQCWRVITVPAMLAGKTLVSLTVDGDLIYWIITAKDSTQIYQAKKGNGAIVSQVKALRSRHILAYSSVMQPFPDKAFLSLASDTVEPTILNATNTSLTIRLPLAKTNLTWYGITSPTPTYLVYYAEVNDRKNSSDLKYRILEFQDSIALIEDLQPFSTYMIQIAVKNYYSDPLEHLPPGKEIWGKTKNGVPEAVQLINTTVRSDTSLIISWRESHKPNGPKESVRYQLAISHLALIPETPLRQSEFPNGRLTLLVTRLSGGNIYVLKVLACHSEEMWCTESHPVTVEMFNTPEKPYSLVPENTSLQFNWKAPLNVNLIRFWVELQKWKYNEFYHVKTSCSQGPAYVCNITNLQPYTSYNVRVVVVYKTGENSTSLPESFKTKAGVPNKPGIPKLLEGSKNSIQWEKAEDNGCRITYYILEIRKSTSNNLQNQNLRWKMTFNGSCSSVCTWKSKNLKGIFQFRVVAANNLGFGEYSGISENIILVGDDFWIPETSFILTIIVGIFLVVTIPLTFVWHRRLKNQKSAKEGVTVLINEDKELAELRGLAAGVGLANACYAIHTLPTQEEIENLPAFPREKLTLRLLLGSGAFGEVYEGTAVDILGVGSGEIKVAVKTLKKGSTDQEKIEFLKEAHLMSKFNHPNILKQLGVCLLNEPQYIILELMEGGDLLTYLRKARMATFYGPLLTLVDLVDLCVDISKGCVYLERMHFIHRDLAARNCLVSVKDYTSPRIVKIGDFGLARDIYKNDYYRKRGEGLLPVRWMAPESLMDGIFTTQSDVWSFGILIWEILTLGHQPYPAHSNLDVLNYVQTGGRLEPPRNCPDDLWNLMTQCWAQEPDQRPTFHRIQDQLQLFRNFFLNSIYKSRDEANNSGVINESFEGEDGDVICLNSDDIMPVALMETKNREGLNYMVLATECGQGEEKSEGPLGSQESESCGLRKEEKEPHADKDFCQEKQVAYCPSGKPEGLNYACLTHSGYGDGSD
Source text: as §1, with “Ba/F3” for “The parental Ba/F3 cell line was cultured in RPMI 1640 medium with 10% FBS, L-glutamine, penicillin/streptomycin and 15% WEHI-conditioned media. Ba/F3”, “HCC78 cells were cultured in RPMI 1640 medium with 10% FBS, L-glutamine, and penicillin/streptomycin.” left out
The FIG-ROS-S (FIG-ROS) fusion protein has been reported in non-small cell lung cancers (NSCLC), glioblastomas, and cholangiocarcinomas.

Ba/F3 SLC-ROS cells [2] = target: T2, Ba/F3 SLC-ROS cells (Homo sapiens, UniProt P08922); assay: Cell viability (MTS) assay, Ba/F3 SLC-ROS; type: cell-based; settings: 72 hours, read-out: IC50 (the source's name)
T2 construct: SLC-ROS-S (SLC-ROS) was cloned from cDNA made from HCC78 cells; fused on or other part: GFP is co-expressed from an IRES in pMIG and is not fused; O95436 (Sodium-dependent phosphate transport protein 2B)
T2 sequence (P08922 whole entry, change not shown, the tested form may be a part): as above
Experimental: as §1, §2

Ba/F3 Bcr-Abl cells = Ba/F3 Bcr-Abl cells (Homo sapiens, UniProt P00519); assay: Cell viability (MTS) assay, Ba/F3 Bcr-Abl; type: cell-based; settings: read-out: IC50 (insensitive/resistant up to stated concentration)
FIG-ROS [3] = target: T3, FIG-ROS (Homo sapiens, UniProt P08922); assay: Immunoblot of Ba/F3 FIG-ROS lysates; type: cell-based; set-up: expressed in transfected cells; host or cells: Ba/F3 (A14), retroviral pMSCV-IRES-GFP; the other entry of the earlier key: GOPC (Q9HD26, Golgi-associated PDZ and coiled-coil motif-containing protein); settings: Ba/F3 FIG-ROS cells, increasing amounts, immunoblot FIG. 1C
T3 sequence (P08922 with tags, fused parts or gaps): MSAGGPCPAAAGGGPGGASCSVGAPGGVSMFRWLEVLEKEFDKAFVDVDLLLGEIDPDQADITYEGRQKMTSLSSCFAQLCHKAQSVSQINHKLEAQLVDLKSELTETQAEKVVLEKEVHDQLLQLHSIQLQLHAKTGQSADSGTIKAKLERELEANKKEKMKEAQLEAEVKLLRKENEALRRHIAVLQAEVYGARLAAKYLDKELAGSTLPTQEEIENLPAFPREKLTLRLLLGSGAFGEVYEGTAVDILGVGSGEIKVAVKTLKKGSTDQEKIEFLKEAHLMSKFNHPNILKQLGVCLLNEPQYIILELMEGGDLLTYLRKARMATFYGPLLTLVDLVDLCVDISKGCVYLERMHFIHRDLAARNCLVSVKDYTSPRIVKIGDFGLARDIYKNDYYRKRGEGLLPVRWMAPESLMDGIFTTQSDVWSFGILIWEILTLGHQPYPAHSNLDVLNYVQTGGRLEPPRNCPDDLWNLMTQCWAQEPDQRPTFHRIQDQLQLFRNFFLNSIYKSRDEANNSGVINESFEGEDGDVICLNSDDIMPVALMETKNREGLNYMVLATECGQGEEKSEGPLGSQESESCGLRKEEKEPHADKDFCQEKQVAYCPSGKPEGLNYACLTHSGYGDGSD
Experimental: (§3) FIG. 1C is an image of an immunoblot of lysates of Ba/F3 FIG-ROS and Ba/F3 SLC-ROS and the indicated downstream effectors after treatment with the indicated compounds. Images shown are representative of three independent experiments.
(§4) Ba/F3 FIG-ROS, Ba/F3 SLC-ROS, HCC78 and mCC cell lines were treated with the indicated concentration of inhibitors for 1-2 hours. […] The protein content of the cell lysates was determined and lysates were either used for immunoprecipitation where indicated or extracted with SDS Sample buffer for 15 minutes at 80° C. Proteins were transferred to Immobilon-FL membranes and immunoblotted with antibodies specific for phospho-ROS1 (Cell Signaling Technology (CST) #3078), total ROS1 (CST #3266), phopsho-Shp2 (CST #3751), total Shpt (CST #3752), phospho-Stat3 (CST #9145), total Stat3 (CST #4904), phospho-Erk1/2 (CST #9101), total Erk2 (Santa Cruz #SC-1647), phospho-S6 (CST #4858), total S6 (CST #2216), phospho-Src (CST #2105), total Src (CST #2110), α-tubulin (Sigma T6199), or β-actin (Sigma A1978) as indicated. Images of the blots were generated by the LI-COR Odyssey® imaging system, following the manufacturer's protocol for immunoblot detection with use of IR-dye conjugated secondary antibodies.

SLC-ROS = SLC-ROS (Homo sapiens, UniProt P08922); assay: Immunoblot of Ba/F3 SLC-ROS lysates; type: cell-based; set-up: SLC34A2 N-terminal portion, fusion partner; expressed in transfected cells; host or cells: Ba/F3 (A15), retroviral pMIG; the other entry of the earlier key: SLC34A2 (O95436, Sodium-dependent phosphate transport protein 2B); settings: Ba/F3 SLC-ROS cells, increasing amounts, immunoblot FIG. 1C
Sequence of SLC-ROS (P08922 with tags, fused parts or gaps): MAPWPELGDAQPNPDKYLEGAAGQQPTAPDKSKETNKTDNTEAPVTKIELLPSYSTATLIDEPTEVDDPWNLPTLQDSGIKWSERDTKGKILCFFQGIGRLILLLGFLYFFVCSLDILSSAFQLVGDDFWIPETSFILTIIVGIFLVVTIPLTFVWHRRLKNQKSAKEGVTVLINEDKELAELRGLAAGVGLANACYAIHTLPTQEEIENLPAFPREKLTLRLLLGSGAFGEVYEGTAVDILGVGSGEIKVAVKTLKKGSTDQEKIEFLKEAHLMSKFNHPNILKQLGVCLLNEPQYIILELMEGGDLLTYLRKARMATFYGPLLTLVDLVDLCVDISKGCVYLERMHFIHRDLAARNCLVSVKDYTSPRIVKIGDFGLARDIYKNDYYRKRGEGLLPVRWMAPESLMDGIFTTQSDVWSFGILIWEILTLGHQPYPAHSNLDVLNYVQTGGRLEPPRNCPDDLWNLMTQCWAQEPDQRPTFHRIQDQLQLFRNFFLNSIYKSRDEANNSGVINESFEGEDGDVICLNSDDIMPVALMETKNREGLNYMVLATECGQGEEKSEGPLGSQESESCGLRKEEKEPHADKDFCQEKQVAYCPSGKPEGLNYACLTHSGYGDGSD
Experimental: as §3, §4

Ba/F3 SLC-ROS cells [4] = target: T2, Ba/F3 SLC-ROS cells; assay: Apoptosis induction (Annexin V / 7-AAD), Ba/F3 SLC-ROS; type: cell-based; settings: 15 nM, 48 hours
Experimental: (§5) FIG. 5A is a set of three bar graphs depicting the induction of apoptosis in Ba/F3 FIG-ROS, Ba/F3 SLC-ROS and Ba/F3 ALK F1174L cells after 48 hours of treatment with the indicated doses of the indicated compounds. The number of cells that were Annexin V and 7-AAD positive after inhibitor treatment was normalized to number of cells staining positive with these markers with vehicle treatment (basal). A minimum of 2000 cells were counted per condition. Rate of apoptosis is shown as fold over basal. Basal apoptosis in Ba/F3 FIG-ROS, Ba/F3 SLC-ROS and Ba/F3 ALK F1174 cells was 3.6%, 2.8% and 1.2% respectively.

Ba/F3 FIG-ROS cells [5] = target: T1, Ba/F3 FIG-ROS cells; assay: Apoptosis induction (Annexin V / 7-AAD), Ba/F3 FIG-ROS; type: cell-based; settings: 15 nM, 48 hours
Experimental: as §5

HCC78 cells = assay: Cell viability (MTS) assay, HCC78; type: cell-based, human; settings: for HCC78 cell growth sensitivity to MET inhibitors: FIG. 6C
Experimental: as §1

[6] = test system: FIG-ROS cholangiocarcinoma tumor cells; assay: Anchorage-independent colony formation in soft agar, FIG-ROS cholangiocarcinoma cells; type: cell-based, murine; settings: dose dependent
Source text: […]. The values indicate the mean and the error bars indicate the standard error of the mean of 3 independent wells.
(§6) . The inhibition was dose dependent (FIG. 2B). […].

FIG-ROS tumors = assay: In vivo treatment of mice bearing subcutaneous FIG-ROS cholangiocarcinoma tumors; settings: 25 mg/kg oral gavage once daily, 9 days, immunodeficient mice; foretinib p<0.0001 for Lines 4 and 6
[7] = test system: ENU-treated Ba/F3 FIG-ROS cells; assay: Accelerated cell-based (ENU) mutagenesis screen, outgrowth of Ba/F3 FIG-ROS clones
[8] = test system: shPten murine cholangiocarcinoma tumor cells; assay: cells; settings: Mus musculus, read-out: IC50 cell growth
Experimental: (§7) Hepatoblasts of the genotype AlbCre^+/−; Isl Kras^G12D+/−; p53^R172H/loxp were isolated from ED14.5 mouse embryos and retrovirally transduced with either the FIG-ROS fusion, turbo RFP or a short hairpin RNA against Pten (shPten.1522). At 48 hours following transduction, 1×10^6 cells were resuspended in 25 μl Matrigel and injected sub-capsular into the livers of immune-deficient mice. Upon tumor formation, tumors were explanted and subjected to collagenase digestion. Digests were plated onto gelatin-coated plates. Tumor cells were enriched by either differential trypsinization or cell sorting. […] These four cell lines were further cultured and maintained in DMEM-High glucose medium supplemented with 10% FCS, L-glutamine and penicillin/streptomycin.
(§8) Cell lines were distributed in 96-well plates and incubated with the indicated concentrations of inhibitor for 72 hours. […] Ba/F3 cell lines were plated at 4×10^3 cells/well. HCC78 and mCC cell lines were plated at 1.5×10^3 cells/well. All cell types were seeded in a final volume of 80 microliters. A 20 microliter volume of five-fold concentrated inhibitor media was added. Cell proliferation was measured using a […] viability assay (CellTiter96 Aqueous One® Solution; Promega). A BioTek Synergy 2® plate reader was used to read the absorbance at 490 nm at 30 minutes and 1 hour after addition of MTS. To facilitate comparison between experiments, the raw MTS absorbance of vehicle (0.1% DMSO) treated cells was set to 1 and absorbance from inhibitor treated wells was normalized to the vehicle treated value. […] Data were normalized using Microsoft Excel® and further non-linear regression curve fit analysis of the normalized data for determination of IC50 was performed using Graphpad Prism® software.
(§9) To directly assess inhibition of FIG-ROS phosphorylation, immunoblot analyses of lysates from vehicle or inhibitor-treated cells were performed.

[9] = test system: FIG-ROS murine cholangiocarcinoma tumor cells; assay: cells; settings: Mus musculus, read-out: IC50 cell growth
Experimental: as §7, §8, §9

PC9 cells = assay: Cell viability assay, PC9; type: cell-based, human; settings: PC9 cells (activated EGFR), FIG. 6B
Experimental: (§10) IC50 was determined from non-linear regression curve fit analysis of the dose response curves.

FIG-ROS [10] = target: T3, FIG-ROS; assay: Immunoblot of FIG-ROS murine cholangiocarcinoma cell lysates; type: cell-based; set-up: expressed in transfected cells; host or cells: murine cholangiocarcinoma tumour cell lines (lines 3 and 4) derived from transduced mouse hepatoblasts; the other entry of the earlier key: GOPC (Q9HD26, Golgi-associated PDZ and coiled-coil motif-containing protein); settings: 100 nM, FIG-ROS murine cholangiocarcinoma cells
Experimental: […]. Images shown are representative of three independent experiments.
as §4, §6

HCC4011 cells = assay: Cell viability assay, HCC4011; type: cell-based, human; settings: HCC4011 cells (activated EGFR), FIG. 6B
Experimental: as §10

[11] = Mus musculus, BaF3, Ba/F3 parental cells, read-out: IC50 (insensitive/resistant up to stated concentration)

CNC(=O)c1c(F)cccc1Nc1nc(Nc2cc3c(cc2OC)CCN3C(=O)CN(C)C)nc2[nH]ccc12 [GSK1838705A]
IC50 (Ba/F3 parental cells; Ba/F3 parental cells, read-out: IC50 (insensitive/resistant up to stated concentration)): > 10000 nM
GI50 (Ba/F3 ALK F1174L cells): 10 nM
GI50 (Ba/F3 JAK3 A572V cells): > 10000 nM
GI50 (Ba/F3 FIG-ROS cells [1]): 250 nM
GI50 (Ba/F3 SLC-ROS cells [2]): 1000 nM
GI50 (Ba/F3 Bcr-Abl cells): > 10000 nM

Cn1c2ccccc2c2c3c(c4c5ccccc5n(CCC#N)c4c21)CNC3=O [Gö6976, 12-(2-cyanoethyl)-6,7,12,13-tetrahydro-13-methyl-5-oxo-5H-indolo(2,3-a)pyrrolo(3,4-c)-carbazole]
autophosphorylation of FIG-ROS and ROS1-driven signaling (phospho-Shp2, phospho-ERK1/2) (FIG-ROS [3]): dose dependent decrease
IC50 (Ba/F3 parental cells; [11]): > 2000 nM
autophosphorylation of SLC-ROS and ROS1-driven signaling (phospho-Shp2, phospho-ERK1/2) (SLC-ROS): dose dependent decrease
GI50 (Ba/F3 FIG-ROS cells [1]): 1.4 nM
apoptosis induction (Ba/F3 SLC-ROS cells [4]): induced apoptosis
apoptosis induction (Ba/F3 FIG-ROS cells [5]): induced apoptosis

Cn1cc(-c2ccc3nnc(C(F)(F)c4ccc5ncccc5c4)n3n2)cn1 [JNJ38877605]
HCC78 cell growth sensitivity to MET inhibitors (HCC78 cells): resistant

Cn1cc(-c2ccc3nnc(Sc4ccc5ncccc5c4)n3n2)cn1 [SGX-523]
HCC78 cell growth sensitivity to MET inhibitors (HCC78 cells): resistant

COc1cc(N2CCC(N3CCN(C)CC3)CC2)ccc1Nc1ncc(Cl)c(Nc2ccccc2S(=O)(=O)C(C)C)n1 [TAE684]
autophosphorylation of FIG-ROS and ROS1-driven signaling (phospho-Shp2, phospho-ERK1/2) (FIG-ROS [3]): dose dependent decrease
IC50 (Ba/F3 parental cells; [11]): > 2000 nM
autophosphorylation of SLC-ROS and ROS1-driven signaling (phospho-Shp2, phospho-ERK1/2) (SLC-ROS): dose dependent decrease
GI50 (Ba/F3 FIG-ROS cells [1]): 2 nM and 1.8 nM
GI50 (Ba/F3 SLC-ROS cells [2]): 28 nM

C[C@@H](Oc1cc(-c2cnn(C3CCNCC3)c2)cnc1N)c1c(Cl)ccc(F)c1Cl [crizotinib]
anchorage-independent colonies in soft agar [6]: inhibited
FIG-ROS tumor volume (FIG-ROS tumors): moderate but statistically insignificant effect
frequency of outgrowth of clones ([7]; 500 nM crizotinib): 40%
outgrowth of clones ([7]; 2000 and 2500 nM crizotinib): no outgrowth of clones
autophosphorylation of FIG-ROS and ROS1-driven signaling (phospho-Shp2, phospho-ERK1/2) (FIG-ROS [3]): dose dependent decrease
IC50 (Ba/F3 parental cells; Mus musculus, BaF3, read-out: IC50 (insensitive/resistant up to stated concentration)): > 2000 nM
autophosphorylation of SLC-ROS and ROS1-driven signaling (phospho-Shp2, phospho-ERK1/2) (SLC-ROS): dose dependent decrease
IC50 [8]: > 2000 nM
IC50 [9]: 690 nM
IC50 (HCC78 cells; Homo sapiens, 72 hour exposure, read-out: IC50 HCC78 cell growth): 2200 nM
sensitivity of cell growth (PC9 cells): relatively insensitive
auto-phosphorylation of FIG-ROS and phosphorylation of Shpt and ERK1/2 (FIG-ROS [10]): more moderate effect
sensitivity of cell growth (HCC4011 cells): relatively insensitive

C#Cc1cccc(Nc2ncnc3cc(OCCOC)c(OCCOC)cc23)c1 [erlotinib]
sensitivity of cell growth (PC9 cells): sensitive
sensitivity of cell growth (HCC4011 cells): sensitive
